Test results taken from PubChem BioAssay (NCI).
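GI50: concentration for 50% inhibition of growth. Definition used: TGI = concentration required for complete inhibition of growth.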

Tests used:
Assay in all cases: growth of human tumour cells (NCI), 384-well format
[1] = system: MDA-MB-435 melanoma
[2] = system: MDA-MB-468 breast
[3] = system: T-47D breast
[4] = system: MCF7 breast
[5] = system: UO-31 renal
[6] = system: TK-10 renal
[7] = system: U251 glioblastoma
[8] = system: 786-0 renal
[9] = system: KM12 colon
[10] = system: HCT-15 colon
[11] = system: NCI-H322M lung
[12] = system: A498 renal
[13] = system: OVCAR-3 ovarian
[14] = system: HL-60(TB) leukemia
[15] = system: CAKI-1 renal
[16] = system: DU-145 prostate
[17] = system: HCC-2998 colon
[18] = system: K-562 leukemia
[19] = system: NCI-H460 NSCLC
[20] = system: SW-620 colon
[21] = system: NCI/ADR-RES ovarian
[22] = system: SK-OV-3 ovarian
[23] = system: BT-549 breast
[24] = system: OVCAR-4 ovarian
[25] = system: CCRF-CEM leukemia
[26] = system: MALME-3M melanoma
[27] = system: PC-3 prostate
[28] = system: RPMI-8226 leukemia
[29] = system: UACC-257 melanoma
[30] = system: SK-MEL-28 melanoma
[31] = system: SF-268 CNS
[32] = system: SF-295 CNS
[33] = system: IGROV1 ovarian
[34] = system: A549 NSCLC
[35] = system: SN12C renal
[36] = system: SF-539 CNS
[37] = system: ACHN renal
[38] = system: HS 578T breast
[39] = system: SNB-19 CNS
[40] = system: HOP-92 NSCLC
[41] = system: OVCAR-8 ovarian
[42] = system: EKVX NSCLC
[43] = system: NCI-H23 lung
[44] = system: OVCAR-5 ovarian
[45] = system: SK-MEL-5 melanoma
[46] = system: NCI-H522 lung
[47] = system: SNB-75 CNS
[48] = system: NCI-H226 lung
[49] = system: UACC-62 melanoma
[50] = system: HOP-62 NSCLC
[51] = system: LOX IMVI melanoma
[52] = system: HCT-116 colon
[53] = system: RXF 393 renal
[54] = system: HT29 colon
[55] = system: COLO 205 colon
[56] = system: M14 melanoma
[57] = system: MDA-MB-231 breast
[58] = system: MOLT-4 leukemia

C[C@@H](NC(=O)c1ncnc(N)c1Cl)c1ncc(C(=O)Nc2cc(C(F)(F)F)c(Cl)cn2)s1
GI50 [1]: 1370 nM | TGI [1]: 15.9 µM | GI50 [2]: 22 µM | TGI [2]: 39 µM | GI50 [3]: 10.2 µM | TGI [3]: 22.7 µM | GI50 [4]: 14.5 µM | TGI [4]: 28.7 µM | GI50 [5]: 11.5 µM | TGI [5]: 32.5 µM | GI50 [6]: 18.8 µM | TGI [6]: 36.4 µM | GI50 [7]: 18 µM | TGI [7]: 39.1 µM | GI50 [8]: 16.8 µM | TGI [8]: 32.9 µM | GI50 [9]: 13.1 µM | TGI [9]: 31.3 µM | GI50 [10]: 11.2 µM | TGI [10]: 25.6 µM | GI50 [11]: 13 µM | TGI [11]: 28.1 µM | GI50 [12]: 16.1 µM | TGI [12]: 39.7 µM | GI50 [13]: 16.2 µM | TGI [13]: 34.1 µM | GI50 [14]: 717 nM | TGI [14]: 10.8 µM | GI50 [15]: 11.6 µM | TGI [15]: 26.5 µM | GI50 [16]: 18 µM | TGI [16]: 35.2 µM | GI50 [17]: 4.74 µM | TGI [17]: 18.5 µM | GI50 [18]: 281 nM | TGI [18]: 1200 nM | GI50 [19]: 9.03 µM | TGI [19]: 21.7 µM | GI50 [20]: 10.8 µM | TGI [20]: 26.6 µM | GI50 [21]: 16.9 µM | TGI [21]: 32 µM | GI50 [22]: 20.5 µM | TGI [22]: 42.6 µM | GI50 [23]: 16.2 µM | TGI [23]: 30.8 µM | GI50 [24]: 20.6 µM | TGI [24]: 38 µM | GI50 [25]: 12.8 µM | TGI [25]: 25.5 µM | GI50 [26]: 47.5 nM | TGI [26]: 289 nM | GI50 [27]: 20.4 µM | TGI [27]: 35 µM | GI50 [28]: 13.9 µM | TGI [28]: 27.1 µM | GI50 [29]: 406 nM | TGI [29]: 2480 nM | GI50 [30]: 419 nM | TGI [30]: 2670 nM | GI50 [31]: 12.3 µM | TGI [31]: 24.9 µM | GI50 [32]: 17.7 µM | TGI [32]: 32.8 µM | GI50 [33]: 5.42 µM | TGI [33]: 20.8 µM | GI50 [34]: 10.3 µM | TGI [34]: 27.8 µM | GI50 [35]: 15.3 µM | TGI [35]: 40.6 µM | GI50 [36]: 17.4 µM | TGI [36]: 35.9 µM | GI50 [37]: 13.7 µM | TGI [37]: 37.8 µM | GI50 [38]: 15 µM | TGI [38]: 28.4 µM | GI50 [39]: 29.4 µM | TGI [39]: 91.4 µM | GI50 [40]: 4.23 µM | TGI [40]: 14.9 µM | GI50 [41]: 14.4 µM | TGI [41]: 27.7 µM | GI50 [42]: 14.8 µM | TGI [42]: 29.1 µM | GI50 [43]: 1880 nM | TGI [43]: 8.75 µM | GI50 [44]: 5.67 µM | TGI [44]: 29.6 µM | GI50 [45]: 1350 nM | TGI [45]: 15.2 µM | GI50 [46]: 13.7 µM | TGI [46]: 26.6 µM | GI50 [47]: 23.7 µM | TGI [47]: 48.1 µM | GI50 [48]: 15.8 µM | TGI [48]: 40.4 µM | GI50 [49]: 154 nM | TGI [49]: 1410 nM | GI50 [50]: 12 µM | TGI [50]: 24.8 µM | GI50 [51]: 1420 nM | TGI [51]: 13.7 µM | GI50 [52]: 2240 nM | TGI [52]: 13.6 µM | GI50 [53]: 18.7 µM | TGI [53]: 40 µM | GI50 [54]: 555 nM | TGI [54]: 15.4 µM | GI50 [55]: 441 nM | TGI [55]: 12.2 µM | GI50 [56]: 157 nM | TGI [56]: 1160 nM | GI50 [57]: 2110 nM | TGI [57]: 20.3 µM | GI50 [58]: 11.1 µM | TGI [58]: 23.2 µM
